Measurements published in publication PMC8269059, “Glycyrrhizin Derivatives Suppress Cancer Chemoresistance by Inhibiting Progesterone Receptor Membrane Component 1” (Cancers, 2021).
Values joined by “and” are separate entries in the source; they are usually repeats but may differ in a detail not shown here. Identical values can stand only once. “Also recorded” adds a separate entry of the source. Like-named read-outs stand apart in the source and are kept apart here.

Key:
heme-dimerized PGRMC1 = biological target: T1, heme-dimerized PGRMC1 (Homo sapiens, UniProt O00264); experiment: ITC binding to heme-dimerized PGRMC1; details: ITC; for KD / Kd: 298 K, 50 mM phosphate pH 7.0, heme-dimerized PGRMC1 (WT); for TΔS / ΔG / ΔH: heme-dimerized PGRMC1 (WT)
T1 construct: human PGRMC1 intracellular domain residues 43-195; GST (N, cleaved yes); made in house; host or cells: E. coli BL21 (DE3)
T1 sequence (O00264 43-195): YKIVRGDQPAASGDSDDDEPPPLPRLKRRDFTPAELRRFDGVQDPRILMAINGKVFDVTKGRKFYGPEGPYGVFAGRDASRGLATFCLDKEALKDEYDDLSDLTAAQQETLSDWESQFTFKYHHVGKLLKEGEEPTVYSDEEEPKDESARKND

apo-PGRMC1 = biological target: T2, apo-PGRMC1 (Homo sapiens, UniProt O00264); experiment: ITC binding to apo-PGRMC1; details: apo-monomer form
T2 construct: human PGRMC1 intracellular domain residues 43-195; GST (N, cleaved yes); made in house; host or cells: E. coli BL21 (DE3)
T2 sequence (O00264 43-195): as above
From the text: Bacterial expression vectors pGEX-PGRMC1 (human PGRMC1 intracellular domain residues 43-195) and mammalian FLAG-tagged expression vector pCMV-FLAG-PGRMC1 (full-length) were constructed as described previously. Expression vectors for PGRMC1 point mutants were generated by site-directed mutagenesis with PCR. For construction of HMGB1 expression vector, human HMGB1 full-length cDNA was cloned from cDNA library of HCT116 cells using the primers (Forward: 5′-[…]-3′, Reverse: 5′-[…]-[…]-3′), digested with Bam HI and Sal I, and then ligated into pGEX6P1.
Expression vectors (pGEX-PGRMC1 (residues 43-195) or pGEX-HMGB1) were transformed into BL21 (DE3) competent E. coli cells, and the cells incubated in LB medium with ampicillin at 37 °C until the OD600 reached 0.8. Protein expression was induced by adding 1 mM isopropyl-β-thiogalactopyranoside (IPTG) and incubating at 37 °C for 4 h. […]
ITC experiments were performed at 298 K with ITC-Buffer (50 mM phosphate [pH 7.0]) using a MicroCal iTC200 (Malvern Panalytical, Malvern, UK). […] Binding isotherms were analyzed using SEDPHAT [35]. The binding of AG205 to apo- or heme-PGRMC1 (100 μM) was analyzed using a concentration of 3 mM containing 1% DMSO. […]

HCT116 cells = experiment: Chemosensitivity MTT assay in HCT116 cells; assay type: cell-based, human; details: for Anti-proliferative / anti-cancer effect with anti-cancer agents: HCT116, MTT, with erlotinib or CDDP, compared with GL; for IC50: Homo sapiens, HCT-116, HCT116 cell viability, MTT
HCT116 cells xenograft = experiment: HCT116 xenograft in nude mice; assay type: in vivo, mouse; details: i.p. twice a week, 22 days, CDDP 2 mg/kg, GL 400 mg/kg, vs control
Method: All protocols for animal experiments in this study were approved by the Experimental Animal Committee of Keio University School of Medicine (approval number: 08024-(13), approval date: 30 September 2020). HCT116 cells (2 × 10^6 cells/mouse) with half of Matrigel (Corning, NY, USA) were transplanted subcutaneously into the flank of 7-week-old nude mice. Four days after the transplantation, tumor size was measured in three dimensions with calipers and grouped by tumor volume. CDDP (2 mg/kg), GL (400 mg/kg), or GlucoGL (100 mg/kg) were administered to the mice intraperitoneally, and the tumor volume was measured twice a week for 22 days.

[1] = test system: GFP-fused PGRMC1 protein partially purified from granulosa cells; details: competitive binding with labeled-progesterone; cited from earlier work
[2] = with CDDP (10 µM), read-out: IC50 CDDP
[3] = with erlotinib (20 µM), read-out: IC50 Erlotinib

KD (heme-dimerized PGRMC1)	IC50 (HCT116 cells; [2])	IC50 (HCT116 cells; [3])	Kd (heme-dimerized PGRMC1)	TΔS (heme-dimerized PGRMC1)	ΔG (heme-dimerized PGRMC1)	ΔH (heme-dimerized PGRMC1)	Compound	Anti-proliferative / anti-cancer effect with anti-cancer agents (HCT116 cells)	further results
–	35.1 µM	62.5 µM	4.85 µM	6.18 K·kcal/mol	-7.26 kcal/mol	-1.08 kcal/mol	CC1(C(=O)O)CCC2(C)CCC3(C)C(=CC(=O)C4C5(C)CCC(OC6OC(C(=O)O)C(O)C(O)C6OC6OCC(O)(CO)C6O)C(C)(C)C5CCC43C)C2C1 (centres unmarked) [Apioglycyrrhizin]	potent anti-cancer effects	–
–	26.6 µM	35.3 µM	8.46 µM	5.90 K·kcal/mol	-6.93 kcal/mol	-1.03 kcal/mol	CC1(C(=O)O)CCC2(C)CCC3(C)C(=CC(=O)C4C5(C)CCC(OC6OC(C(=O)O)C(O)C(O)C6OC6OCC(O)C(O)C6O)C(C)(C)C5CCC43C)C2C1 (centres unmarked) [Araboglycyrrhizin]	potent anti-cancer effects	–
–	–	–	–	–	–	–	[NH2][Pt]([NH2])([Cl])[Cl] [CDDP, cisplatin]	–	Tumor volume, administered individually (HCT116 cells xenograft): no differences in tumor volume
No Binding	–	–	–	–	–	–	CC1(C)[C@@H](OC(=O)CCC(=O)O)CC[C@]2(C)[C@H]3C(=O)C=C4[C@@H]5C[C@@](C)(C(=O)O)CC[C@]5(C)CC[C@@]4(C)[C@]3(C)CC[C@@H]12 [Carbenoxolone]	weaker anti-proliferative effects	–
Weak Binding	–	–	–	–	–	–	CC1(C)[C@@H](O)CC[C@]2(C)[C@H]3C(=O)C=C4[C@@H]5C[C@@](C)(C(=O)O)CC[C@]5(C)CC[C@@]4(C)[C@]3(C)CC[C@@H]12 [Glycyrrhetinic acid (GA), Glycyrrhetinic acid]	–	KD (heme-dimerized PGRMC1; listed as GA): did not detect significant binding
–	41.2 µM	50.5 µM	9.55 µM	6.23 K·kcal/mol	-6.85 kcal/mol	-0.62 kcal/mol	CC1(C(=O)O)CCC2(C)CCC3(C)C(=CC(=O)C4C5(C)CCC(OC6OC(C(=O)O)C(O)C(O)C6O)C(C)(C)C5CCC43C)C2C1 (centres unmarked) [Glycyrrhetinic acid-3-O-mono-glucuronide]	–	–
–	–	–	128 µM	4.08 K·kcal/mol	-5.31 kcal/mol	-1.23 kcal/mol	CC1(C(=O)O)CCC2(C)CCC3(C)C(=CC(=O)C4C5(C)CCC(OC6OC(C(=O)O)C(O)C(O)C6OC6OC(C(=O)O)C(O)C(O)C6O)C(C)(CO)C5CCC43C)C2C1 (centres unmarked) [Licorice-saponin G2]	weaker anti-proliferative effects	–
No Binding	–	–	–	–	–	–	CC1(C(=O)O)CCC2(C)CCC3(C)C(=CC(=O)C4C5(C)CCC(OC6OC(C(=O)O)C(O)C(O)C6OC6OC(C(=O)O)C(O)C(O)C6O)C(C)(C)C5CCC43C)C2C1 (centres unmarked) [Licorice-saponin H2]	weaker anti-proliferative effects	–
No Binding	–	–	–	–	–	–	CC12CCC3(C)C(=CC(=O)C4C5(C)CCC(OC6OC(C(=O)O)C(O)C(O)C6OC6OC(C(=O)O)C(O)C(O)C6O)C(C)(C)C5CCC43C)C1CC(C)(C(=O)O)C(O)C2 (centres unmarked) [Macedonoside A]	weaker anti-proliferative effects	–
–	–	–	815 µM and 816 µM	–	-4.22 kcal/mol	-23.26 kcal/mol	CC(=O)[C@H]1CC[C@H]2[C@@H]3CCC4=CC(=O)CC[C@]4(C)[C@H]3CC[C@]12C [Progesterone]	–	Kd [1]: 0.035 µM
–	17.2 µM	19.1 µM	1.08 µM	6.08 K·kcal/mol	-8.15 kcal/mol	-2.07 kcal/mol	CC1OC(OC2C(OC3C(OC4CCC5(C)C(CCC6(C)C5C(=O)C=C5C7CC(C)(C(=O)O)CCC7(C)CCC56C)C4(C)C)OC(C(=O)O)C(O)C3O)OC(CO)C(O)C2O)C(O)C(O)C1O (centres unmarked) [Rhaoglucoglycyrrhizin]	potent anti-cancer effects	–

Compound	KD (heme-dimerized PGRMC1)	IC50 (HCT116 cells; [2])	IC50 (HCT116 cells; [3])	Kd (heme-dimerized PGRMC1)	TΔS (heme-dimerized PGRMC1)	ΔG (heme-dimerized PGRMC1)	ΔH (heme-dimerized PGRMC1)	Anti-proliferative / anti-cancer effect with anti-cancer agents (HCT116 cells)	further results
Cc1ccc2c(c1)[C@H]1CN(C)CC[C@H]1N2C(=O)CSc1nnnn1-c1ccc(Cl)cc1 [AG205]	no binding activity; also recorded: did not observe AG205 binding	–	–	–	–	–	–	–	Binding to apo-PGRMC1 (apo-PGRMC1): no binding activity; also recorded: did not observe AG205 binding
